Reference: ChEMBL document CHEMBL5465560, “Selectivity Literature for EUbOPEN Chemogenomic Library” (2024)
Blank lines part the entries; values can stand above or below the compound they belong to.

Columns and labels:
[1] = molecular target: Cyclin-dependent kinase 15 (Homo sapiens) (UniProt Q96Q40); assay: Selectivity interaction (Ambit KINOMEscan and KiNATiv profiling in Jurkat cells) EUB0000090b CDK15; assay type: cell-based; details: at 1 µM
[2] = molecular target: T1, Tyrosine-protein kinase ITK/TSK (Homo sapiens) (UniProt Q08881); assay: Selectivity interaction (KinomeScan (DiscoverX)) EUB0000655a ITK; details: at 10 µM
T1 sequence (whole entry): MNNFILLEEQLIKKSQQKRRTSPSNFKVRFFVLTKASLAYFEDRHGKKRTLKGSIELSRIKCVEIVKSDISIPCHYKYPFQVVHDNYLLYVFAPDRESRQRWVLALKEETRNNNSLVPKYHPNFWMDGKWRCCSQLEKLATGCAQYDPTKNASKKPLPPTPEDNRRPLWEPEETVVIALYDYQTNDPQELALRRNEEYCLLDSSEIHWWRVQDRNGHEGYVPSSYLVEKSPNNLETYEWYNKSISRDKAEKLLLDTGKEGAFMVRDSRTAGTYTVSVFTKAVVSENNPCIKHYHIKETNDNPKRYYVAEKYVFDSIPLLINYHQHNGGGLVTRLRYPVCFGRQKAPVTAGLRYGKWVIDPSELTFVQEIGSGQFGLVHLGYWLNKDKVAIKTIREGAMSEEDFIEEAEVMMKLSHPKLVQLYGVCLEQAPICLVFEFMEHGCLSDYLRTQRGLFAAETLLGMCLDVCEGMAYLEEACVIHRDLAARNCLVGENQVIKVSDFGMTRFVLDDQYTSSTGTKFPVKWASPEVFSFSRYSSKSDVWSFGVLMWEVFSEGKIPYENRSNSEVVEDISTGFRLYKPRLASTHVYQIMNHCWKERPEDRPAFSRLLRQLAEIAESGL

[3] = molecular target: T2, Mitogen-activated protein kinase kinase kinase 5 (Homo sapiens) (UniProt Q99683); assay: Selectivity interaction (KinomeScan (DiscoverX)) EUB0000655a MAP3K5; details: at 10 µM
T2 sequence (whole entry): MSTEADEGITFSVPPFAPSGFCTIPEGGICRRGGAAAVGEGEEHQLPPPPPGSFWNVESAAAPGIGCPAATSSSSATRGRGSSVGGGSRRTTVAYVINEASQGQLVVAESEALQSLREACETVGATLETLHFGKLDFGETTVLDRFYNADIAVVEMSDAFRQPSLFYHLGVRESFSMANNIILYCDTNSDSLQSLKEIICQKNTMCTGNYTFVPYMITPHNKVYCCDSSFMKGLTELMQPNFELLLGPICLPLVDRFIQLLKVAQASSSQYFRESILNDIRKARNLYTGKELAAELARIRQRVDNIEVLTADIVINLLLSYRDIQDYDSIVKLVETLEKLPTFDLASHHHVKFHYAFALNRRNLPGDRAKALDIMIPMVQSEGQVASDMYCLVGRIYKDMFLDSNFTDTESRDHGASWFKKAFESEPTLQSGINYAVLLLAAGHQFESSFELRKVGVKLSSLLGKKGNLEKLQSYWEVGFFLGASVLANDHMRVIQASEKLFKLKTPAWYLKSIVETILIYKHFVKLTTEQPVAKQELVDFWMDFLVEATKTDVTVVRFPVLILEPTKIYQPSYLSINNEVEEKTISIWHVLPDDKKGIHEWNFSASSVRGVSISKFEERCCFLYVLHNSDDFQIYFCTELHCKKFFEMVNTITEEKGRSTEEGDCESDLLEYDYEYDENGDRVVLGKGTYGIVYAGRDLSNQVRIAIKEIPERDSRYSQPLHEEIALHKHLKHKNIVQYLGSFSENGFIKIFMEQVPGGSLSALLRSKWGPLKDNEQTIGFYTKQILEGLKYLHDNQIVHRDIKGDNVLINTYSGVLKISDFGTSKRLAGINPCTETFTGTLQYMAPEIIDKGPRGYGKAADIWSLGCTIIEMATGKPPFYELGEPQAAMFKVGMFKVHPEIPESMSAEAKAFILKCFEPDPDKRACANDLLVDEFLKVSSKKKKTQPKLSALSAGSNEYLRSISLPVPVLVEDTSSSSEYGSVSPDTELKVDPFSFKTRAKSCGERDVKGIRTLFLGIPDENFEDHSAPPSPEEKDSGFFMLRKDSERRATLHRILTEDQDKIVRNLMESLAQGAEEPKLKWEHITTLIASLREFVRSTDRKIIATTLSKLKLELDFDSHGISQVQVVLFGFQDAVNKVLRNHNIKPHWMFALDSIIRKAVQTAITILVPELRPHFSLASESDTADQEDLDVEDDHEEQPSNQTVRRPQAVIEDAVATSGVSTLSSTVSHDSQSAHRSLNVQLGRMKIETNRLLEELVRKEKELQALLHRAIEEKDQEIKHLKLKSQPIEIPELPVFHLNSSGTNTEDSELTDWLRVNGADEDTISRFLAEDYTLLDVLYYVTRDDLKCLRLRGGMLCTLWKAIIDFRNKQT

[4] = molecular target: Fibroblast growth factor receptor 1 (Homo sapiens, UniProt P11362); assay: Selectivity interaction (KinomeScan (DiscoverX)) EUB0001079a FGFR1; details: at 1 µM
Fibroblast growth factor receptor 1, sequence (P11362 22-822 limits assumed): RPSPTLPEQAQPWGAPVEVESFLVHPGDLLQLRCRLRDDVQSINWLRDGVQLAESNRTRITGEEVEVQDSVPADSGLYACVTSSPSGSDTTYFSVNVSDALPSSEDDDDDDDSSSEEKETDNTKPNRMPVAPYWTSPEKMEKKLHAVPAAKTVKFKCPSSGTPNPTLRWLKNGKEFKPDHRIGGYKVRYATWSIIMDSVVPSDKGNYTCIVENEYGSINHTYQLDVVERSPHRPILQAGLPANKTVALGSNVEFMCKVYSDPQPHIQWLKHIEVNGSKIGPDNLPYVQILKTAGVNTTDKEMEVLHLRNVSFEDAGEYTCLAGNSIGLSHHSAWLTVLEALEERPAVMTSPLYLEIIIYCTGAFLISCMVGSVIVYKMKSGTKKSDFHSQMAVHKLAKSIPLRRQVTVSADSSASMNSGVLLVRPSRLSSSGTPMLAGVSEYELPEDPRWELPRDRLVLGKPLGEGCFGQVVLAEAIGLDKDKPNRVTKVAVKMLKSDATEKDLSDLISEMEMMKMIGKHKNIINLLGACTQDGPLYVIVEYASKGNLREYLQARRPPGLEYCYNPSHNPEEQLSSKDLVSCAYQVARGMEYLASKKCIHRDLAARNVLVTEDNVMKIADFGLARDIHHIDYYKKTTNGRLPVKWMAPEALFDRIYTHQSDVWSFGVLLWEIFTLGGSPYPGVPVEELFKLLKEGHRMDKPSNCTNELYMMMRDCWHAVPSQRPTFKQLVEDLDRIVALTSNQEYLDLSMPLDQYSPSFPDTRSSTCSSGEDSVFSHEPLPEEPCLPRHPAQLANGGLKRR

[5] = molecular target: BDNF/NT-3 growth factors receptor (Homo sapiens) (UniProt Q16620); assay: Selectivity interaction (KinomeScan (DiscoverX)) EUB0000607a NTRK2; details: at 10 µM
BDNF/NT-3 growth factors receptor (Homo sapiens), sequence (Q16620 32-822 limits assumed): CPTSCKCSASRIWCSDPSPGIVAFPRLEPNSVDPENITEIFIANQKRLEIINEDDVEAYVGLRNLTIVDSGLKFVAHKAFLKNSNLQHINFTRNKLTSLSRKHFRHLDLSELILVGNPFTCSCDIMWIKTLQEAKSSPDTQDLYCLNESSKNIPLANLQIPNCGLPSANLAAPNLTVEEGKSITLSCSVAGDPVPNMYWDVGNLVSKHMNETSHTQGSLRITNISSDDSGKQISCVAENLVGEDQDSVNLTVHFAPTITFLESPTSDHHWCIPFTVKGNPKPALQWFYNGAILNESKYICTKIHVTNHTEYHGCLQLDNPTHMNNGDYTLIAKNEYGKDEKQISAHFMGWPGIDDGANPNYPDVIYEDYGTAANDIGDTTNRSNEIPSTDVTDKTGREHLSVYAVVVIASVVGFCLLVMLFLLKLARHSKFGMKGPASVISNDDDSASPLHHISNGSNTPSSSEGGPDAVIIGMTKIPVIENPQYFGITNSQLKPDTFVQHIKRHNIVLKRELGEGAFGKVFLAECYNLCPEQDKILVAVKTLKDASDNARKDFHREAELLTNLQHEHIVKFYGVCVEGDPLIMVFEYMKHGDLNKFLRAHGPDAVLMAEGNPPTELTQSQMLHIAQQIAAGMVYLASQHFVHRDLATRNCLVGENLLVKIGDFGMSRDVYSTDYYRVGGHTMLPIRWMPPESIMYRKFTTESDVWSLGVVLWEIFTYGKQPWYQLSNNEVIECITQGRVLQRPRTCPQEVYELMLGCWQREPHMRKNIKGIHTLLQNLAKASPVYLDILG

[6] = molecular target: Serine/threonine-protein kinase PAK 3 (Homo sapiens) (UniProt O75914); assay: Selectivity interaction (KinomeScan (DiscoverX)) EUB0000607a PAK3; details: at 10 µM
Serine/threonine-protein kinase PAK 3 (Homo sapiens), sequence (O75914 whole entry, looked up): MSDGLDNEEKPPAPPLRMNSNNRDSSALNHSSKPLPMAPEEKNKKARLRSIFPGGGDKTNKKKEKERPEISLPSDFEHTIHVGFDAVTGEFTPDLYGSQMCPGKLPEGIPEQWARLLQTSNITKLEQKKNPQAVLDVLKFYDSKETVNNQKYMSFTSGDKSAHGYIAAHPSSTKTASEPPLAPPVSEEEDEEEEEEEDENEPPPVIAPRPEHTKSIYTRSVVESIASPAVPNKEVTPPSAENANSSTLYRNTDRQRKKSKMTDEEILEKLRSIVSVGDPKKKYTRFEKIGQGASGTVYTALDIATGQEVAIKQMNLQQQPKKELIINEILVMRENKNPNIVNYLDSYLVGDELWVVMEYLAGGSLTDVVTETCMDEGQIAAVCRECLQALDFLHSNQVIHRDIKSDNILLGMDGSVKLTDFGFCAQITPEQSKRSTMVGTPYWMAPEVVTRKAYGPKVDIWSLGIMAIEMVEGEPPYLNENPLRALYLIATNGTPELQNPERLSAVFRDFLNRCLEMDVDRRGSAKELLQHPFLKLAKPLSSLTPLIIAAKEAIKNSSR

[7] = molecular target: Interferon-induced, double-stranded RNA-activated protein kinase (Homo sapiens) (UniProt P19525); assay: Selectivity interaction (KinomeScan (DiscoverX)) EUB0000595a EIF2AK2; details: at 10 µM
Interferon-induced, double-stranded RNA-activated protein kinase (Homo sapiens), sequence (P19525 whole entry): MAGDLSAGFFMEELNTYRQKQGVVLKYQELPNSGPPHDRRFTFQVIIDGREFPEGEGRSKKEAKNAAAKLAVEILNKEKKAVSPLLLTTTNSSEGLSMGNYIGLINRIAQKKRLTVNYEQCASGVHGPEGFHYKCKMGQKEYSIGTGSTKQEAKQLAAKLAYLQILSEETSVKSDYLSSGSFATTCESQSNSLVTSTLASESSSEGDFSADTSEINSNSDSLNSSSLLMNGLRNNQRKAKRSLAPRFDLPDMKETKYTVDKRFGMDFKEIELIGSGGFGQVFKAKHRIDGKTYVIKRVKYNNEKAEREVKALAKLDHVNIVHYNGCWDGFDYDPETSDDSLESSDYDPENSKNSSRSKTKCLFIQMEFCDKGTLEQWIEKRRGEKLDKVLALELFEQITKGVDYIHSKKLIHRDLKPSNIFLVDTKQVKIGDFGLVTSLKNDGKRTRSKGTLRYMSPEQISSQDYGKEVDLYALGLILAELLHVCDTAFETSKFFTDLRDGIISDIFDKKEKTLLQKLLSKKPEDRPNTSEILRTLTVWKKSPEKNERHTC

[8] = molecular target: Serine/threonine-protein kinase mTOR (Homo sapiens, UniProt P42345); assay: Selectivity interaction (ActivX KiNativ screen (kinase selectivity in THP-1 cell lysates)) EUB0000639a MTOR; assay type: subcellular; details: lysate
[9] = molecular target: Transient receptor potential cation channel subfamily M member 6 (Homo sapiens) (UniProt Q9BX84); assay: Selectivity interaction (KinomeScan (DiscoverX)) EUB0001049a TRPM6; details: at 1 µM
[10] = molecular target: Macrophage colony-stimulating factor 1 receptor (Homo sapiens) (UniProt P07333); assay: Selectivity interaction (KinomeScan (DiscoverX)) EUB0000666a CSF1R; details: at 10 µM
Macrophage colony-stimulating factor 1 receptor (Homo sapiens), sequence (P07333 whole entry): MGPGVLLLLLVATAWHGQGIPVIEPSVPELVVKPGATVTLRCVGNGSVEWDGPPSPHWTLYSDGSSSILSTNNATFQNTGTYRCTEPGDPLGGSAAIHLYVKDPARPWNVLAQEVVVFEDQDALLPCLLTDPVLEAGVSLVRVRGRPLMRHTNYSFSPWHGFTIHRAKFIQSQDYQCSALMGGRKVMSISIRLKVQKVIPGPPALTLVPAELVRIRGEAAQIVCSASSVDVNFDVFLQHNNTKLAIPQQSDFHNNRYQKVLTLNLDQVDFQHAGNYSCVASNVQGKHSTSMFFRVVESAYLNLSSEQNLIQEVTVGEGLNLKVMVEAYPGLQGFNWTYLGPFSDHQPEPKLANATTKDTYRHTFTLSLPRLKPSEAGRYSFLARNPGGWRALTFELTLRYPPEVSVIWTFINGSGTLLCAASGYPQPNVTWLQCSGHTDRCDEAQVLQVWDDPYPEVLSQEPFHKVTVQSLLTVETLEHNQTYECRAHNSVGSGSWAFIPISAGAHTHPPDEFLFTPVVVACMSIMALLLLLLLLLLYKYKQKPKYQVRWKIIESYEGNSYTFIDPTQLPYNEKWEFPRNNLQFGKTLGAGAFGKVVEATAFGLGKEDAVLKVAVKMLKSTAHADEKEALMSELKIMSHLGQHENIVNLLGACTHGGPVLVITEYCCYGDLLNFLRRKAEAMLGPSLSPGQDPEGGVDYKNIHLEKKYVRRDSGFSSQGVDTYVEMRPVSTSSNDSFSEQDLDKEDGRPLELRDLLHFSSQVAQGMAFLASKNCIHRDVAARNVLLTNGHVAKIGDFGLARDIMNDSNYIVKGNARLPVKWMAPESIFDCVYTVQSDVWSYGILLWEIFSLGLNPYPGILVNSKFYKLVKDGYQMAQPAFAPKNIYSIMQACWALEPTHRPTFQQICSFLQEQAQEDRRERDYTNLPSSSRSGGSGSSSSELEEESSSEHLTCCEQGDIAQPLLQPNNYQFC

[11] = molecular target: Mitogen-activated protein kinase 1 (Homo sapiens, UniProt P28482); assay: Selectivity interaction (Kinase panel (Z-LYTE Assay)) EUB0001632a MAPK1; details: at 10 µM
Mitogen-activated protein kinase 1, sequence (P28482 whole entry): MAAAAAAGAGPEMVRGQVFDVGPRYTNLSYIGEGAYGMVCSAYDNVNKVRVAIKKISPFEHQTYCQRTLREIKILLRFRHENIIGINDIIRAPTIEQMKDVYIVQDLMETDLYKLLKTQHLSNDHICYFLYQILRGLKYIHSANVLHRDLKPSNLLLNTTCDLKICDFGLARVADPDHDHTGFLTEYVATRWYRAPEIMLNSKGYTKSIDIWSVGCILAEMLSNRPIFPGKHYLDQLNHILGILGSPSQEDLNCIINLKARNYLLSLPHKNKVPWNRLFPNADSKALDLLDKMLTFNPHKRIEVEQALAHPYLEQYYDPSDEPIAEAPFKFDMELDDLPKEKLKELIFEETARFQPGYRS

Cyclin-dependent kinase 15 (Homo sapiens), sequence (Q96Q40 whole entry): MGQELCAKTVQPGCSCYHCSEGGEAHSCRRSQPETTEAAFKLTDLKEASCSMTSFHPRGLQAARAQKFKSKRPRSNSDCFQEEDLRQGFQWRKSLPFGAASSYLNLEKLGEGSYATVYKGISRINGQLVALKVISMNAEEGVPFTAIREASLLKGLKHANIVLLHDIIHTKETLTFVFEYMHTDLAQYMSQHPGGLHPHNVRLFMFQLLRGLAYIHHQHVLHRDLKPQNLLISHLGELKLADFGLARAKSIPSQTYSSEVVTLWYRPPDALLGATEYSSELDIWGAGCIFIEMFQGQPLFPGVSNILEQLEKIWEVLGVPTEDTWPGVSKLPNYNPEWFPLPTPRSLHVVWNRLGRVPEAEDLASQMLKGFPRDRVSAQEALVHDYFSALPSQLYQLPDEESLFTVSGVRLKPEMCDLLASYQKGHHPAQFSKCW

SMILES: CN(C)C/C=C/C(=O)Nc1ccc(C(=O)N2CCCC(Nc3ncc(Cl)c(-c4c[nH]c5ccccc45)n3)C2)cc1 (stereo not given)
% of control [1]: 73%

SMILES: CN(C)CCOc1ccc(-c2nc(-c3ccncc3)c(-c3ccc4c(c3)CC/C4=N\O)[nH]2)cc1
% of control [2]: 98% | % of control [3]: 94%

SMILES: Nc1cnc(N2CCc3cc(S(=O)(=O)Nc4c(F)cc(Cl)cc4F)cc(N4CCCC4=O)c32)nc1 [TP-020n]
% of control [4]: 88%

SMILES: CNC(=O)Nc1ccc(-c2nc(N3CC4CCC(C3)O4)c3cnn(C4CCC5(CC4)OCCO5)c3n2)cc1
% of control [5]: 100% | % of control [6]: 99%

SMILES: COCC(=O)NC/C=C/c1ccc2ncnc(Nc3ccc(Oc4ccc(C)nc4)c(C)c3)c2c1 [CP-724714]
% of control [7]: 99%

% of inhibition ([8]; at 0.01 µM): 8% | % of inhibition ([8]; at 0.04 µM): 3% | % of inhibition ([8]; at 0.2 µM): 4.3% | % of inhibition ([8]; at 1 µM): 9.9% | % of inhibition ([8]; at 5 µM): -4.7%
SMILES: CC[C@@H]1[C@H](F)C(=O)N[C@@H]1COc1nccc2cc(C(N)=O)c(OC)cc12 [ZIMLOVISERTIB]

SMILES: COc1cc(Nc2nc(C)cc(-c3cnn4nc(OC)ccc34)n2)cc(C(F)(F)F)c1
% of control [9]: 96%

SMILES: O=C(NOC[C@H](O)CO)c1ccc(F)c(F)c1Nc1ccc(I)cc1F
% of control [10]: 100%

% of control [11]: -3.31%
SMILES: Cn1cc(-n2cnc3c(NCc4nc5cc(Cl)c(Cl)cc5[nH]4)nc(N4CCOCC4)nc32)cn1
